The values that follow come from patent US10100001B2, “Adenylyl cyclase inhibitors for neuropathic and inflammatory pain” (Purdue Research Foundation, priority 2015, dated 2018).

Assay [1] addresses T1, AC1 (Homo sapiens, UniProt Q08828).
T1 construct: expressed in transfected cells
The assay is described as follows: Inhibition of A23187-mediated (Ca2+-stimulated) cAMP accumulation in HEK cells stably expressing AC1. It counts as cell-based. The following applies: for inhibition at 4 µM / inhibition at 40 µM: HEK293, read-out: AC1 Inhibition Percentage; for inhibition at 4 µM: 4 μM compound; for inhibition at 40 µM: 40 μM compound; for IC50: HEK cells stably expressing AC1, inhibitors 30 min, then 3 μM A23187 with IBMX, average and S.E.M. of at least three independent experiments, read-out: IC50 for inhibition of the A23187-mediated cAMP response of AC1. On the procedure: HEK cells stably expressing AC1 were treated with inhibitors for 30 min, and subsequently incubated with 3 μM A23187 in the presence of 2 mM IBMX. Data represent the average and S.E.M. of at least three independent experiments.
A23187 is a Ca2+ ionophore, which promotes Ca2+ binding to calmodulin in the cells and, subsequent stimulation of AC1.
HEK (human embryonic kidney) cells stably expressing human AC1, were cultured in Dubelcco's Modified Eagle Medium (Life Technologies, Grand Island, N.Y.) supplemented with 5% bovine calf serum (Hyclone, Logan, Utah), 5% fetal clone I (Hyclone, Logan, Utah), Antibiotic-Antimycotic (Life Technologies, Grand Island, N.Y.), and G418 (Invivogen, San Diego, Calif.). The cells were grown to confluency in 15 cm disses, harvested using Cell Dissociation Buffer (Life Technologies, Grand Island, N.Y.), and resuspended in 4 ml of fetal bovine serum (Hyclone, Logan, Utah) containing 10% dimethyl sulfoxide (Sigma-Aldrich, St. Louis, Mo.). 1 ml of cell suspension was added to cryovials that were incubated overnight at −80° C. in a CoolCell device (BioCision, Larkspur, Calif.) for cryopreservation. On the following day, cryovials were stored in liquid N2 until the assay day.
Cryopreserved HEK-AC1 cells were thawed in a 37° C. water-bath, resuspended in 10 ml optiMEM (Life Technologies, Grand Island, N.Y.) and centrifuged at 500×g for 5 min. The cells were resuspended in 10 ml optiMEM and the centrifugation step was repeated. Cells were then resuspended in 1 ml optiMEM and counted using a Countess automated cell counter (Life Technologies, Grand Island, N.Y.). Cells were added to a white, flat bottom, low-volume, tissue culture-treated 384 well plate (PerkinElmer, Shelton, Conn.) at a final density of 2500 cells/well. The plate was centrifuged for 1 min at 100×g and incubated in a 37° C. humidified incubator for 1 h. […] Following this incubation A23187 (Sigma-Aldrich, St. Louis, Mo.) (3 μM final concentration) containing 3-isobutyl-1-methylxanthine (Sigma-Aldrich, St. Louis, Mo.) (0.5 mM final concentration) was added. The plate was centrifuged for 1 min at 100×g and incubated at room temperature for 1 h. Cyclic AMP accumulation was measured using Cisbio's dynamic 2 kit (Cisbio Bioassays, Bedford, Mass.) according to the manufacturer's instructions. Plates were analyzed for fluorescent emissions at 620 nm and 665 nm using 330 nm as the excitation wavelength in a Cytation 3 Cell Imaging Multi-Mode Reader (Biotek, Winooski, Vt.), and ratiometric analysis was carried out by dividing the 665 nm emissions by the 620 nm emissions to extrapolate the cAMP concentrations from a cAMP standard curve. The data represent the average of at least three independent experiments ran in duplicate.

In assay [2] the test system is neuroinflammatory and neuropathic pain rodent models. To be noted: cited from earlier work.

T1 sequence (Q08828 whole entry): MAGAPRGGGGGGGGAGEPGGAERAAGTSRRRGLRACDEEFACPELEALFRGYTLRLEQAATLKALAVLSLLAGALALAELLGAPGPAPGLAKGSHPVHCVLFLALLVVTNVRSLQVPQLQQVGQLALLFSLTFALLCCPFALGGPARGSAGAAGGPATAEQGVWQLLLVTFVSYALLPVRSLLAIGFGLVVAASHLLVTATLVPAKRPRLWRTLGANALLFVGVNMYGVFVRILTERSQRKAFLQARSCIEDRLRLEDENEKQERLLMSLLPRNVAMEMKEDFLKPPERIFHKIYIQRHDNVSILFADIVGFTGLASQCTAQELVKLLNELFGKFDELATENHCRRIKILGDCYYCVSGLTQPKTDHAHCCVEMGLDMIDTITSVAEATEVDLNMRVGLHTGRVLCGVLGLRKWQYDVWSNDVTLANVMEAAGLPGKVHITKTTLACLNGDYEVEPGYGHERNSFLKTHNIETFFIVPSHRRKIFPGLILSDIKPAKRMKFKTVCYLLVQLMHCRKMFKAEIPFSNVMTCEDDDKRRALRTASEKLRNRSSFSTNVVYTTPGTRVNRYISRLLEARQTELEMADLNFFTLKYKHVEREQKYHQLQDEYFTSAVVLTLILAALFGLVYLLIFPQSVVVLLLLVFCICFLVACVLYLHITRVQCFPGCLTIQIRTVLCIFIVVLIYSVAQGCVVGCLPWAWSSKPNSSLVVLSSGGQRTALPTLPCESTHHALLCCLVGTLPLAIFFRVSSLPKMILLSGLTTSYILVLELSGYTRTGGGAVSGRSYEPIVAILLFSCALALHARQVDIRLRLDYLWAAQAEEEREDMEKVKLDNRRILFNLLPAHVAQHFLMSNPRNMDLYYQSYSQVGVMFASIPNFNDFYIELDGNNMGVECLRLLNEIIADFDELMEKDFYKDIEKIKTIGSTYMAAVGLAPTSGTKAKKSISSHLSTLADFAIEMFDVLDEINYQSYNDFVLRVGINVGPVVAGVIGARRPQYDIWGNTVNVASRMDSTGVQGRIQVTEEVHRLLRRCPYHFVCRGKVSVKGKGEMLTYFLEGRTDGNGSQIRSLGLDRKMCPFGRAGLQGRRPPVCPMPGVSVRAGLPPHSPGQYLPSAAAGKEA

For `COc1ccc(/C=C/CN(C)Cc2cccc3ccccc23)cc1OC` [Compound 7fk, (E)-3-(3,4-dimethoxyphenyl)-N-methyl-N-(naphthalen-1-ylmethyl)prop-2-en-1-amine], in assay [1], the inhibition at 4 µM is -14% and the inhibition at 40 µM turned out to be 33%.
With `CN(C/C=C/c1cccc([N+](=O)[O-])c1)Cc1cccc2ccccc12` [Compound 7fl, (E)-N-methyl-N-(naphthalen-1-ylmethyl)-3-(3-nitrophenyl)prop-2-en-1-amine], in assay [1], the inhibition at 4 µM was -28% and the inhibition at 40 µM was determined as 62%.
The corresponding values for `COC(=O)CCCN(C/C=C/c1ccccc1)Cc1ccc(F)cc1` [Compound 7ga, methyl 4-(cinnamyl(4-fluorobenzyl)amino)butanoate] are 20% and 67%.
As for `COC(=O)CCCN(C/C=C/c1ccc(C)cc1)Cc1ccc(F)cc1` [Compound 7gb, (E)-methyl 4-((4-fluorobenzyl)(3-p-tolylallyl)amino)butanoate], in assay [1], the inhibition at 4 µM is -3% and the inhibition at 40 µM was found to be 64%.
Turning to `COC(=O)CCCN(C/C=C/c1ccc(Cl)cc1)Cc1ccc(F)cc1` [Compound 7gc, (E)-methyl 4-((3-(4-chlorophenyl)allyl)(4-fluorobenzyl)amino)butanoate], in assay [1], the inhibition at 4 µM is -24% and the inhibition at 40 µM was 70%.
As to `CCOC(=O)c1ccc(/C=C/CN(CCCC(=O)OC)Cc2ccc(F)cc2)cc1` [Compound 7gd, (E)-ethyl 4-(3-((4-fluorobenzyl)(4-methoxy-4-oxobutyl)amino)prop-1-enyl)benzoate], in assay [1], the inhibition at 4 µM is -24% and the inhibition at 40 µM was 71%.
Take `Cc1ccc(S(=O)(=O)N2CCCN(C/C=C/c3ccccc3)CC2)cc1` [Compound 7ha, 1-cinnamyl-4-tosyl-1,4-diazepane]: in assay [1], the inhibition at 4 µM stood at 6% and the inhibition at 40 µM was determined as 73%.
Regarding `Cc1ccc(/C=C/CN2CCCN(S(=O)(=O)c3ccc(C)cc3)CC2)cc1` [Compound 7hb, (E)-1-(3-p-tolylallyl)-4-tosyl-1,4-diazepane], in assay [1], the inhibition at 4 µM is -26% and the inhibition at 40 µM came to 27%.
Turning to `Cc1ccc(S(=O)(=O)N2CCCN(C/C=C/c3ccc(Cl)cc3)CC2)cc1` [Compound 7hc, (E)-1-(3-(4-chlorophenyl)allyl)-4-tosyl-1,4-diazepane], in assay [1], the inhibition at 4 µM is -5.5% and the inhibition at 40 µM was 85%.
For `COc1ccc2c(c1)C(c1ccccc1)CN(CC=Cc1ccccc1)CC2` (centres unmarked) [Compound 7ja, 3-cinnamyl-8-methoxy-1-phenyl-2,3,4,5-tetrahydro-1H-benzo[d]azepine] the same measures were 72% and 95%.
Consider `COc1ccc2c(c1)C(c1ccccc1)CN(C/C=C/c1ccc(C)cc1)CC2` (centres unmarked) [Compound 7jb, (E)-8-methoxy-1-phenyl-3-(3-p-tolylallyl)-2,3,4,5-tetrahydro-1H-benzo[d]azepine], for which, in assay [1], the inhibition at 4 µM was 43%, the inhibition at 40 µM was 90% and the 50% inhibitory concentration (IC50) worked out at 16.7 µM.
Turning to `COc1ccc2c(c1)C(c1ccccc1)CN(C/C=C/c1ccc(I)cc1)CC2` (centres unmarked) [Compound 7jc, (E)-3-(3-(4-iodophenyl)allyl)-8-methoxy-1-phenyl-2,3,4,5-tetrahydro-1H-benzo[d]azepine], in assay [1], the inhibition at 4 µM is -3% and the inhibition at 40 µM amounted to 51%.
Regarding `COc1ccc2c(c1)C(c1ccccc1)CN(C/C=C/c1ccc(F)cc1)CC2` (centres unmarked) [Compound 7jd, (E)-3-(3-(4-fluorophenyl)allyl)-8-methoxy-1-phenyl-2,3,4,5-tetrahydro-1H-benzo[d]azepine], in assay [1], the inhibition at 4 µM was found to be 49%, the inhibition at 40 µM came to 91% and the half-maximal inhibitory concentration (IC50) amounted to 14.8 µM.
In the case of `COc1ccc2c(c1)C(c1ccccc1)CN(C/C=C/c1ccc(Cl)cc1)CC2` (centres unmarked) [Compound 7je, (E)-3-(3-(4-chlorophenyl)allyl)-8-methoxy-1-phenyl-2,3,4,5-tetrahydro-1H-benzo[d]azepine], in assay [1], the inhibition at 4 µM worked out at 33%, the inhibition at 40 µM was found to be 78% and the IC50 worked out at 9.1 µM.
As for `COc1ccc2c(c1)C(c1ccccc1)CN(C/C=C/c1ccc(C(F)(F)F)cc1)CC2` (centres unmarked) [Compound 7jf, (E)-8-methoxy-1-phenyl-3-(3-(4-(trifluoromethyl)phenyl)allyl)-2,3,4,5-tetrahydro-1H-benzo[d]azepine], in assay [1], the inhibition at 4 µM worked out at 17% and the inhibition at 40 µM turned out to be 88%.
Regarding `COc1ccc2c(c1)C(c1ccc(Br)cc1)CN(C/C=C/c1ccc(C)cc1)CC2` (centres unmarked) [Compound 7kb, (E)-1-(4-bromophenyl)-8-methoxy-3-(3-p-tolylallyl)-2,3,4,5-tetrahydro-1H-benzo[d]azepine], in assay [1], the inhibition at 4 µM is 8% and the inhibition at 40 µM came to 11%.
In the case of `COc1ccc2c(c1)C(c1ccc(Br)cc1)CN(C/C=C/c1ccc(Cl)cc1)CC2` (centres unmarked) [Compound 7kc, (E)-1-(4-bromophenyl)-3-(3-(4-chlorophenyl)allyl)-8-methoxy-2,3,4,5-tetrahydro-1H-benzo[d]azepine], in assay [1], the inhibition at 4 µM turned out to be 32% and the inhibition at 40 µM worked out at 32%.
For `Nc1ncnc2c1ncn2CCNCCCCCO` [NB001], the analgesic effects entry in assay [2] was “analgesic effects”.
